In the assay the target is RIPK2 enzyme (Homo sapiens (Human), UniProt O43353). The experiment in a line: RIPK2 inhibition assay, TR-FRET LanthaScreen Tracer 199 screening assay. The format is binding. The conditions noted are these: 5 nM RIPK2 enzyme, Tracer 199 at 50 nM, Eu-anti-His Antibody at 2 nM, 1 hour incubation. The method, boiled down: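 TR-FRET binding displacement: 5 nM RIPK2, 50 nM Tracer 199, 2 nM Eu-anti-His antibody in 1× kinase reaction buffer, 1 h, read at room temperature (340 ex/665 and 615 em). No-enzyme background subtracted; percent inhibition versus uninhibited controls, IC50 from unconstrained variable-slope fit.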
On the technique in general: In TR-FRET formats the signal depends on donor and acceptor labels being close together.

The term IC50 denotes the concentration that inhibits the measured activity by half. A higher IC50 goes with lower potency.

RIPK2 enzyme, sequence (O43353 whole entry): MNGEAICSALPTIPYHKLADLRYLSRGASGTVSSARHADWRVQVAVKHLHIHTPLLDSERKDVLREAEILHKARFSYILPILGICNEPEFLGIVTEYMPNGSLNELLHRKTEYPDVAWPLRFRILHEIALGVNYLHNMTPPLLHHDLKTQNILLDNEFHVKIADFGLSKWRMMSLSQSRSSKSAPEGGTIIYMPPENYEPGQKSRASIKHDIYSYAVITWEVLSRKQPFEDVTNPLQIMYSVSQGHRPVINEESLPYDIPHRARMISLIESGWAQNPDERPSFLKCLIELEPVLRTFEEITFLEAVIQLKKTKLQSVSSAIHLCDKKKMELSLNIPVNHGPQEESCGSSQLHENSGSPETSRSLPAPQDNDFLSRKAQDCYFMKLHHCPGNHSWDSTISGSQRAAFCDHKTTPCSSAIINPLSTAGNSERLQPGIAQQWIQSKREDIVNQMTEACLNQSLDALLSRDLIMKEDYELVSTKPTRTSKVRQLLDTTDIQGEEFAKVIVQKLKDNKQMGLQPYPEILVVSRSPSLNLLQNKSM

For `CC1NCCCCC1c1cc2c(Nc3c(F)cc4scnc4c3F)ccnc2s1` (centres unmarked) [Example 118b, 4,6-difluoro-N-(2-(2-methylazepan-3-yl)thieno[2,3-b]pyridin-4-yl)benzo[d]thiazol-5-amine], the half-maximal inhibitory concentration (IC50) is not above 10 nM. Under `CC1NCCCC1c1cc2c(Nc3ccc4scnc4c3)c(F)cnc2s1` (centres unmarked) [Example 119, N-(5-fluoro-2-(2-methylpiperidin-3-yl)thieno[2,3-b]pyridin-4-yl)benzo[d]thiazol-5-amine] stands 20 to 50 nM. Molecule `CC1C(c2cc3c(Nc4ccc5scnc5c4)c(F)cnc3s2)CCCN1C` (centres unmarked) [Example 120, N-(2-(1,2-dimethylpiperidin-3-yl)-5-fluorothieno[2,3-b]pyridin-4-yl)benzo[d]-thiazol-5-amine] came in with an IC50 not above 10 nM. In the case of `CCN1CCCC(c2cc3c(Nc4ccc5scnc5c4)c(F)cnc3s2)C1C` (centres unmarked) [Example 121, N-(2-(1-ethyl-2-methylpiperidin-3-yl)-5-fluorothieno[2,3-b]pyridin-4-yl)benzo[d]thiazol-5-amine], the IC50 is not above 10 nM. For `CC1NCCCC1c1cc2c(Nc3cc4ncsc4cc3F)c(F)cnc2s1` (centres unmarked) [Example 122a, 6-fluoro-N-(5-fluoro-2-(2-methylpiperidin-3-yl)thieno[2,3-b]pyridin-4-yl) benzo[d]thiazol-5-amine] the value was not below 50 nM. For `CC1C(c2cc3c(Nc4cc5ncsc5cc4F)c(F)cnc3s2)CCCN1C` (centres unmarked) [Example 123a, N-(2-(1,2-dimethylpiperidin-3-yl)-5-fluorothieno[2,3-b]pyridin-4-yl)-6-fluorobenzo[d]thiazol-5-amine] the value was not below 50 nM; for `CC1NCCCC1c1cc2c(Nc3c(F)cc4scnc4c3F)c(F)cnc2s1` (centres unmarked) [Example 126a, 4,6-difluoro-N-(5-fluoro-2-(2-methylpiperidin-3-yl)thieno[2,3-b]pyridin-4-yl)benzo[d]thiazol-5-amine], not above 10 nM; for `CC1C(c2cc3c(Nc4c(F)cc5scnc5c4F)c(F)cnc3s2)CCCN1C` (centres unmarked) [Example 127b], not above 10 nM.

(Values after patent US11168093B2, “Thienopyridine inhibitors of RIPK2” (Celgene Corporation, priority 2018, dated 2021).)
